Drawing on patent US10538555B2, “Macrocyclic inhibitors of the PD-1/PD-L1 and CD80(B7-1)/PD-L1 protein/protein interactions” (BRISTOL-MYERS SQUIBB COMPANY, priority 2014, dated 2020), this text covers IC50 for 15 compounds.

Molecules are shown by their SMILES. Where a SMILES comes first, the peptide text is derived from it. Bridges are numbered along the chain shown (N, C = ends). [ ]: non-standard residue; d: D form. ξ: configuration not given here. Trp(1-CH2COOH) = N[C@@H](Cc1cn(CC(=O)O)c2ccccc12)C(=O)O; Phe(3,4,5-F3) = N[C@@H](Cc1cc(F)c(F)c(F)c1)C(=O)O; Phe(3,4-(OMe)2) = COc1ccc(C[C@H](N)C(=O)O)cc1OC; Phe(3,4-F2) = N[C@@H](Cc1ccc(F)c(F)c1)C(=O)O; Trp(1-Me) = Cn1cc(C[C@H](N)C(=O)O)c2ccccc21; d(cisHyp) = O=C(O)[C@H]1C[C@@H](O)CN1; Bta = N[C@@H](Cc1csc2ccccc12)C(=O)O; Hyp = O=C(O)[C@@H]1C[C@@H](O)CN1; NMeF = CN[C@@H](Cc1ccccc1)C(=O)O; dHyp = O=C(O)[C@H]1C[C@H](O)CN1; NMehSer = CN[C@@H](CCO)C(=O)O; NMeNle = CCCC[C@H](NC)C(=O)O; hSer = N[C@@H](CCO)C(=O)O; NMeA = CN[C@@H](C)C(=O)O; Orn = NCCC[C@H](N)C(=O)O; Dab = NCC[C@H](N)C(=O)O; Dap = NC[C@H](N)C(=O)O; ξC = NC(CS)C(=O)O

T1 sequence (Q9NZQ7 with tags, fused parts or gaps): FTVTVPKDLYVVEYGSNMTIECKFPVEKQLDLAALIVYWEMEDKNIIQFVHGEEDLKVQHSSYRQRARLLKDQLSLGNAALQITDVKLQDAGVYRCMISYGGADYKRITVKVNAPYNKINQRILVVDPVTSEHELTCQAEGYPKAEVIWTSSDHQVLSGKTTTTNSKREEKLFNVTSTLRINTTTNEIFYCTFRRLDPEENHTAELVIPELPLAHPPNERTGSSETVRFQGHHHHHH

The first assay concerns the target T1, Human PD-L1/PD-1 (Homo sapiens, UniProt Q9NZQ7).
T1 construct: TVMV protease cleavage site (C); made in house; host or cells: HEK293T cells
Kind of assay: HTRF Human PD-L1/PD-1 binding assay (PD-1-Ig/PD-L1-His). The note with it: PD-L1-His 10 nM, PD-1-Ig 20 nM; class symbol; read-out: HTRF Human PD-L1/PD-1 Binding Assay IC50 Range. A digest of the protocol: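 HTRF read-out (665/620 nm ratio) after 30 min equilibration with Eu-cryptate anti-Ig mAb (1 nM) and APC anti-His mAb (20 nM). Peptides preincubated 15 min with PD-L1-His (10 nM), then PD-1-Ig (20 nM) added for 15 min.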
On to `CCCC[C@H]1C(=O)N(C)[C@@H](CCCC)C(=O)N[C@@H](CCCNC(=N)N)C(=O)NC(C(=O)NCC(N)=O)CSCC(=O)N[C@@H](Cc2ccc(O)cc2)C(=O)N(C)[C@@H](C)C(=O)N[C@@H](CC(N)=O)C(=O)N2CCC[C@H]2C(=O)N[C@@H](CO)C(=O)N[C@@H](CCO)C(=O)N2CCC[C@H]2C(=O)N[C@@H](Cc2c[nH]c3ccccc23)C(=O)N[C@@H](CO)C(=O)N[C@@H](Cc2csc3ccccc23)C(=O)N1C` (stereo partly drawn) [Example 10025] ({CH2CO}-Y[NMeA]NPS[hSer]PWS[Bta][NMeNle][NMeNle]R[ξC]G-NH2; thioether N-14), for which the IC50 is 1 to 9.9 nM.
Same read-out and setting: the figure for `CCCC[C@H]1C(=O)N2CCC[C@@H]2C(=O)N[C@@H](CO)C(=O)N[C@@H](C(C)C)C(=O)N(C)[C@@H](Cc2ccccc2)C(=O)N[C@@H](Cc2ccc(O)cc2)C(=O)N2CCC[C@@H]2C(=O)N[C@@H](Cc2c[nH]c3ccccc23)C(=O)N[C@@H](Cc2ccc(O)cc2)C(=O)N[C@@H](CC(C)C)C(=O)N[C@H](C(=O)NCC(N)=O)CSCC(=O)N[C@@H](Cc2ccccc2)C(=O)N(C)[C@@H](Cc2ccccc2)C(=O)N1C` [Example 10067] ({CH2CO}-F[NMeF][NMeNle][dP]SV[NMeF]Y[dP]WYLCG-NH2; thioether N-13) is 1 to 9.9 nM; for `CCCC[C@H]1C(=O)N(C)[C@@H](CCCC)C(=O)N[C@@H](CCC(=O)O)C(=O)N[C@H](C(=O)NCC(N)=O)CSCC(=O)N[C@@H](Cc2ccc(OC)cc2)C(=O)N(C)[C@@H](C)C(=O)N[C@@H](CCN)C(=O)N2CCC[C@H]2C(=O)N[C@@H](Cc2cnc[nH]2)C(=O)N[C@@H](CCCCN)C(=O)N2C[C@H](O)C[C@H]2C(=O)N[C@@H](Cc2c[nH]c3ccccc23)C(=O)N[C@@H](CCN)C(=O)N[C@@H](Cc2c[nH]c3ccccc23)C(=O)N1C` [Example 7120] ({CH2CO}-Y(Me)[NMeA][Dab]PHK[Hyp]W[Dab]W[NMeNle][NMeNle]ECG-NH2; thioether N-14) it is 1 to 9.9 nM; for `CCCC[C@H]1C(=O)N(C)[C@@H](CCCC)C(=O)N[C@@H](CCCNC(=N)N)C(=O)NC(C(=O)NCC(N)=O)CSCC(=O)N[C@@H](Cc2ccc(O)cc2)C(=O)N(C)[C@@H](C)C(=O)N[C@@H](CC(N)=O)C(=O)N2CCC[C@H]2C(=O)N[C@@H](CCO)C(=O)N[C@@H](CCO)C(=O)N2CCC[C@H]2C(=O)N[C@@H](Cc2c[nH]c3ccccc23)C(=O)N[C@@H](CO)C(=O)N[C@@H](Cc2c[nH]c3ccccc23)C(=O)N1C` (stereo partly drawn) [Example 10021] ({CH2CO}-Y[NMeA]NP[hSer][hSer]PWSW[NMeNle][NMeNle]R[ξC]G-NH2; thioether N-14) it is 10 to 99.9 nM.
Turning to `CCCC[C@H]1C(=O)N(C)[C@@H](CCCC)C(=O)N[C@@H](CCC(=O)O)C(=O)N[C@H](C(=O)NCC(N)=O)CSCC(=O)N[C@@H](Cc2ccc(O)cc2)C(=O)N(C)[C@@H](C)C(=O)N[C@@H](CC(=O)O)C(=O)N2CCC[C@H]2C(=O)N[C@@H](CN)C(=O)N[C@@H](CCC(N)=O)C(=O)N2C[C@H](O)C[C@H]2C(=O)N[C@@H](Cc2c[nH]c3ccccc23)C(=O)N[C@@H](CCN)C(=O)N[C@@H](Cc2c[nH]c3ccccc23)C(=O)N1C` [Example 5200] ({CH2CO}-Y[NMeA]DP[Dap]Q[Hyp]W[Dab]W[NMeNle][NMeNle]ECG-NH2; thioether N-14), the IC50 was 1 to 9.9 nM.
Same read-out and setting: as for `CCCC[C@H]1C(=O)N(C)[C@@H](CCOC)C(=O)N[C@@H](CCC(=O)O)C(=O)N[C@H](C(=O)NCC(N)=O)CSCC(=O)N[C@@H](Cc2ccc(O)cc2)C(=O)N(C)[C@@H](C)C(=O)N[C@@H](CC(N)=O)C(=O)N2CCC[C@H]2C(=O)N[C@@H](Cc2c[nH]cn2)C(=O)N[C@@H](CCC(N)=O)C(=O)N2C[C@H](O)C[C@H]2C(=O)N[C@@H](Cc2c[nH]c3ccccc23)C(=O)N[C@@H](CO)C(=O)N[C@@H](Cc2c[nH]c3ccccc23)C(=O)N1C` [Example 10147] ({CH2CO}-Y[NMeA]NPHQ[Hyp]WSW[NMeNle][NMehSer](Me)ECG-NH2; thioether N-14), the figure is 1 to 9.9 nM.
The same measure, in the same setting: the figure for `CCCC[C@H]1C(=O)N2CCC[C@@H]2C(=O)N[C@@H](CC(=O)O)C(=O)N[C@@H](C(C)C)C(=O)N(C)[C@@H](Cc2ccccc2)C(=O)N[C@@H](CC(=O)O)C(=O)N2C[C@H](O)C[C@@H]2C(=O)N[C@@H](Cc2c[nH]c3ccccc23)C(=O)N[C@@H](Cc2ccc(O)cc2)C(=O)N[C@@H](CCCCN)C(=O)N[C@H](C(=O)NCC(N)=O)CSCC(=O)N[C@@H](Cc2cc(F)c(F)c(F)c2)C(=O)N(C)[C@@H](Cc2ccccc2)C(=O)N1C` [Example 10174] ({CH2CO}-[Phe(3,4,5-F3)][NMeF][NMeNle][dP]DV[NMeF]D[d(cisHyp)]WYKCG-NH2; thioether N-13) is 1 to 9.9 nM; for `CCCC[C@H]1C(=O)N(C)[C@@H](CCCC)C(=O)N[C@@H](CCC(=O)O)C(=O)N[C@H](C(=O)NCC(N)=O)CSCC(=O)N[C@@H](Cc2ccc(O)cc2)C(=O)N(C)[C@@H](C)C(=O)N[C@@H](CC(N)=O)C(=O)N2CCC[C@H]2C(=O)N[C@@H](CO)C(=O)N[C@@H](CCC(N)=O)C(=O)N2C[C@H](O)C[C@H]2C(=O)N[C@@H](Cc2c[nH]c3ccccc23)C(=O)N[C@@H](CO)C(=O)N[C@@H](Cc2c[nH]c3ccccc23)C(=O)N1C` [Example 5204] ({CH2CO}-Y[NMeA]NPSQ[Hyp]WSW[NMeNle][NMeNle]ECG-NH2; thioether N-14) it is 1 to 9.9 nM; for `CCCC[C@H]1C(=O)N2C[C@H](O)C[C@@H]2C(=O)N[C@@H](CC(=O)O)C(=O)N[C@@H](C(C)C)C(=O)N(C)[C@@H](Cc2ccccc2)C(=O)N[C@@H](CCC(=O)O)C(=O)N2C[C@H](O)C[C@@H]2C(=O)N[C@@H](Cc2c[nH]c3ccccc23)C(=O)N[C@@H](Cc2ccc(O)cc2)C(=O)N[C@@H](CCN)C(=O)N[C@H](C(=O)NCC(N)=O)CSCC(=O)N[C@@H](Cc2cc(F)c(F)c(F)c2)C(=O)N(C)[C@@H](Cc2ccccc2)C(=O)N1C` [Example 9333] ({CH2CO}-[Phe(3,4,5-F3)][NMeF][NMeNle][d(cisHyp)]DV[NMeF]E[d(cisHyp)]WY[Dab]CG-NH2; thioether N-13) it is 10 to 99.9 nM.
As to `CCCC[C@H]1C(=O)N(C)[C@@H](CCCC)C(=O)N[C@@H](CCCNC(=N)N)C(=O)N[C@H](C(=O)NCC(N)=O)CSCC(=O)N[C@@H](Cc2ccc(OC)c(OC)c2)C(=O)N(C)[C@@H](C)C(=O)N[C@@H](CC(N)=O)C(=O)N2CCC[C@H]2C(=O)N[C@@H](Cc2cnc[nH]2)C(=O)N[C@@H](CC(C)C)C(=O)N2C[C@H](O)C[C@H]2C(=O)N[C@@H](Cc2c[nH]c3ccccc23)C(=O)N[C@@H](CO)C(=O)N[C@@H](Cc2c[nH]c3ccccc23)C(=O)N1C` [Example 7072] ({CH2CO}-[Phe(3,4-(OMe)2)][NMeA]NPHL[Hyp]WSW[NMeNle][NMeNle]RCG-NH2; thioether N-14), the IC50 is 1 to 9.9 nM.
Still for that read-out and setting: the figure for `CCCC[C@H]1C(=O)N(C)[C@@H](CCCC)C(=O)N[C@@H](CC(C)C)C(=O)N[C@H](C(=O)NCC(N)=O)CSCC(=O)N[C@@H](Cc2ccc(O)cc2)C(=O)N(C)[C@@H](C)C(=O)N[C@@H](CC(N)=O)C(=O)N2CCC[C@H]2C(=O)N[C@H](C)C(=O)N[C@@H](CCC(=O)O)C(=O)N2C[C@H](O)C[C@H]2C(=O)N[C@@H](Cc2c[nH]c3ccccc23)C(=O)N[C@@H](CCN)C(=O)N[C@@H](Cc2csc3ccccc23)C(=O)N1C` [Example 5248] ({CH2CO}-Y[NMeA]NP[dA]E[Hyp]W[Dab][Bta][NMeNle][NMeNle]LCG-NH2; thioether N-14) is 1 to 9.9 nM.
On the same count and under the same terms, as for `CCCC[C@H]1C(=O)N(C)[C@@H](CCCC)C(=O)N[C@@H](CCCNC(=N)N)C(=O)N[C@H](C(=O)NCC(N)=O)CSCC(=O)N[C@@H](Cc2ccc(O)cc2)C(=O)N(C)[C@@H](C)C(=O)N[C@@H](CC(=O)O)C(=O)N2CCC[C@H]2C(=O)N[C@@H](Cc2cnc[nH]2)C(=O)N[C@@H](CCCCN)C(=O)N2C[C@H](O)C[C@H]2C(=O)N[C@@H](Cc2c[nH]c3ccccc23)C(=O)N[C@@H](CCCCN)C(=O)N[C@@H](Cc2cn(CC(=O)O)c3ccccc23)C(=O)N1C` [Example 6224] ({CH2CO}-Y[NMeA]DPHK[Hyp]WK[Trp(1-CH2COOH)][NMeNle][NMeNle]RCG-NH2; thioether N-14), the figure is 10 to 99.9 nM.
For the compound `CCCC[C@H]1C(=O)N(C)[C@@H](CCCC)C(=O)N[C@@H](CCC(=O)O)C(=O)N[C@H](C(=O)NCC(N)=O)CSCC(=O)N[C@@H](Cc2ccc(O)cc2)C(=O)N(C)[C@@H](C)C(=O)N[C@@H](CC(=O)O)C(=O)N2CCC[C@H]2C(=O)N[C@@H](Cc2cnc[nH]2)C(=O)N[C@@H](CCC(N)=O)C(=O)N2C[C@H](O)C[C@H]2C(=O)N[C@@H](Cc2c[nH]c3ccccc23)C(=O)N[C@@H](CO)C(=O)N[C@@H](Cc2cn(C)c3ccccc23)C(=O)N1C` [Example 1500] ({CH2CO}-Y[NMeA]DPHQ[Hyp]WS[Trp(1-Me)][NMeNle][NMeNle]ECG-NH2; thioether N-14), the IC50 lay in the range of 1 to 9.9 nM.

The assay is the same for the next values; noted with them: PD-L1-His 10 nM, PD-1-Ig 20 nM; read-out: HTRF Human PD-L1/PD-1 Binding Assay IC50.
In the case of `CCCC[C@H]1C(=O)N(C)[C@@H](CCCC)C(=O)N[C@@H](CCCNC(=N)N)C(=O)NC(C(=O)NCC(N)=O)CSCC(=O)N[C@@H](Cc2ccc(O)cc2)C(=O)N(C)[C@@H](C)C(=O)N[C@@H](CC(N)=O)C(=O)N2CCC[C@H]2C(=O)N[C@@H](CC(N)=O)C(=O)N[C@@H](CC(N)=O)C(=O)N2CCC[C@H]2C(=O)N[C@@H](Cc2c[nH]c3ccccc23)C(=O)N[C@@H](CO)C(=O)N[C@@H](Cc2c[nH]c3ccccc23)C(=O)N1C` (stereo partly drawn) [Example 10013] ({CH2CO}-Y[NMeA]NPNNPWSW[NMeNle][NMeNle]R[ξC]G-NH2; thioether N-14), the IC50 was determined as 63.4 nM.
Still for that read-out and setting: as for `COCC[C@H]1C(=O)N2C[C@@H](O)C[C@@H]2C(=O)N[C@@H](CC(=O)O)C(=O)N[C@@H](C(C)C)C(=O)N(C)[C@@H](Cc2ccccc2)C(=O)N[C@@H](Cc2ccc(OC)cc2)C(=O)N2C[C@@H](O)C[C@@H]2C(=O)N[C@@H](Cc2c[nH]c3ccccc23)C(=O)N[C@@H](Cc2ccc(O)cc2)C(=O)N[C@@H](CCCN)C(=O)N[C@H](C(=O)NCC(N)=O)CSCC(=O)N[C@@H](Cc2ccc(F)c(F)c2)C(=O)N(C)[C@@H](Cc2ccccc2)C(=O)N1C` [Example 9239] ({CH2CO}-[Phe(3,4-F2)][NMeF][NMehSer](Me)[dHyp]DV[NMeF]Y(Me)[dHyp]WY[Orn]CG-NH2; thioether N-13), the figure is 3.8 nM.
